Test results reported in patent US20260055114A1, “IMIDAZO[1,2-B]PYRIDAZINE INHIBITORS OF CYCLIN-DEPENDENT KINASES” (H. LEE MOFFITT CANCER CENTER AND RESEARCH INSTITUTE, INC., priority 2022, published 2026).

Key:
CDK12 = CDK12 (Homo sapiens, UniProt Q9NYV4); assay: Inhibition of cyclin-dependent kinase 12 (% enzyme activity at 1 uM and IC50); type: biochemical; settings: for remaining activity at 1 µM: 1 uM compound
MDA-MB-231 cell line = assay: Antiproliferative activity, MDA-MB-231 cell line (GI50); type: cell-based; settings: Homo sapiens
CCNK = CCNK degradation (DC50, Dmax); type: cell-based; settings: for Dmax (%): CCNK degradation

CDK12, sequence (Q9NYV4 whole entry): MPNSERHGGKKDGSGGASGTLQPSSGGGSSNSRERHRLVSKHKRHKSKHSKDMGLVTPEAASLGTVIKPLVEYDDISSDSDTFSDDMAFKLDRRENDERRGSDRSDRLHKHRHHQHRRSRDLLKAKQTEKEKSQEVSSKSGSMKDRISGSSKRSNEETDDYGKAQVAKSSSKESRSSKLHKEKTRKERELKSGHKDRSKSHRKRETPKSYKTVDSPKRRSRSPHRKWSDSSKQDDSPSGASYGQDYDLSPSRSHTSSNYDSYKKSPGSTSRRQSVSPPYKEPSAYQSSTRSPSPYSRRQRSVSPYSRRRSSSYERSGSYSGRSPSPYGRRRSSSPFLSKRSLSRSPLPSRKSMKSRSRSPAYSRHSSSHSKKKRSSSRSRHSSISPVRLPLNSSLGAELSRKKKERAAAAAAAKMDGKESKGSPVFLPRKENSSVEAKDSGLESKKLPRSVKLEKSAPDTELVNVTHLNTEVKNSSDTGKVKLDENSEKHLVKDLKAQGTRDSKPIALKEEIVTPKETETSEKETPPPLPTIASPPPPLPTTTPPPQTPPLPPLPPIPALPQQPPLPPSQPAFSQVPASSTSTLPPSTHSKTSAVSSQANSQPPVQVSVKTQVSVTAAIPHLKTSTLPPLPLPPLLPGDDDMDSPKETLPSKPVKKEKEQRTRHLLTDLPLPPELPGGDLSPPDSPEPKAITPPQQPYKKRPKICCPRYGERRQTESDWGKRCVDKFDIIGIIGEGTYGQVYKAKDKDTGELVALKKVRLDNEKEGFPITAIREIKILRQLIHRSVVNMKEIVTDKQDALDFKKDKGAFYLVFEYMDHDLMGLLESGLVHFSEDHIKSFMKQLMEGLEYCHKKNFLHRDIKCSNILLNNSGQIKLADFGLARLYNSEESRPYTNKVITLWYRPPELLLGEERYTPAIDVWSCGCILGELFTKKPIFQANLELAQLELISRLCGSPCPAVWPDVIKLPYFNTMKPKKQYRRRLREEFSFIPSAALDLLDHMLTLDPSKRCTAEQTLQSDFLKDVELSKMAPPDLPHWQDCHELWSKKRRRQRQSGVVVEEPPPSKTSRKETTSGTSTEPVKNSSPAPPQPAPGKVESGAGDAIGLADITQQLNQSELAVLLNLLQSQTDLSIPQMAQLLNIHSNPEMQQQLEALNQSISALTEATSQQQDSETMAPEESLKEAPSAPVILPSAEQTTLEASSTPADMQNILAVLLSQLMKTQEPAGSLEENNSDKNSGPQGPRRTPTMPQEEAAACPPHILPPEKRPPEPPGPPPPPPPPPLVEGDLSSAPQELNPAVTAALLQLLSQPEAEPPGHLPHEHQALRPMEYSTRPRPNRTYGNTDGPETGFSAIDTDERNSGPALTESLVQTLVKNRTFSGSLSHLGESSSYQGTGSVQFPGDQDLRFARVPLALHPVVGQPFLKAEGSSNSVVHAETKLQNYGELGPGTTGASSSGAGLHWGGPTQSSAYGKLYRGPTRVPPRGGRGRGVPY
CDK12, sequence (O75909 whole entry partner): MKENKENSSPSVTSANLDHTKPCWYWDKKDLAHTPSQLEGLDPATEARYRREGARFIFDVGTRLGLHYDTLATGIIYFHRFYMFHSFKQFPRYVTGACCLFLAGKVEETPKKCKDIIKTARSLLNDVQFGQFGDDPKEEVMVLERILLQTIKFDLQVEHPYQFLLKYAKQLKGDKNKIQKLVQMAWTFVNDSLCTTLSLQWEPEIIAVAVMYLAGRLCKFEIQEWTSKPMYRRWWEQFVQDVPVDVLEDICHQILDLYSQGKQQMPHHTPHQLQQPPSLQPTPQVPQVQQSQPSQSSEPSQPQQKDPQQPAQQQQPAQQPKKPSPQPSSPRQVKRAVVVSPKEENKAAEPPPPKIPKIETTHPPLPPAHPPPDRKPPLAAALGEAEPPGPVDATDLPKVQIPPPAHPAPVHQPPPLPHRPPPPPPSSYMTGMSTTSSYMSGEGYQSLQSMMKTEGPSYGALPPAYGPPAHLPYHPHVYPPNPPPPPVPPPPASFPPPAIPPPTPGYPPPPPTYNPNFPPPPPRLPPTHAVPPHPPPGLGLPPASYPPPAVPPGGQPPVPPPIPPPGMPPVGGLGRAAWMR

| Compound | remaining activity at 1 µM (CDK12) [%] | GI50 (MDA-MB-231 cell line) [nM] | DC50 (CCNK) [nM] | IC50 (CDK12) [nM] | Dmax (%) (CCNK) |
| --- | --- | --- | --- | --- | --- |
| CN1CCN(c2cc(NCc3nc4cc(Cl)c(Cl)cc4[nH]3)c3ncc(-c4cnn(C5CC5)c4)n3n2)CC1 [Cmpd 29, 3-(1-cyclopropyl-1H-pyrazol-4-yl)-N-((5,6-dichloro-1H-benzo[d]imidazol-2-yl)methyl)-6-(4-methylpiperazin-1-yl) imidazo[1,2-b]pyridazin-8-amine] | 81 | 1120 | 10000 | – | – |
| CN1CCN(c2cc(NCc3nc4cccc(Cl)c4[nH]3)c3ncc(-c4ccsc4)n3n2)CC1 [Cmpd 66, N-((7-chloro-1H-benzo[d]imidazol-2-yl)methyl)-6-(4-methylpiperazin-1-yl)-3-(thiophen-3-yl) imidazo[1,2-b]pyridazin-8-amine] | – | 180 | 80 | 90 | 85 |
| Cc1cc(-c2cnc3c(NCc4nc5cc(Cl)c(Cl)cc5[nH]4)cc(N4CCOCC4)nn23)cs1 [Cmpd 88, N-((5,6-dichloro-1H-benzo[d]imidazol-2-yl)methyl)-3-(5-methylthiophen-3-yl)-6-morpholinoimidazo[1,2-b]pyridazin-8-amine] | 82 | 460 | 1800 | – | 100 |
| CC(C)n1cc(-c2cnc3c(NCc4nc5c(F)cccc5[nH]4)cc(N4CCOCC4)nn23)cn1 [Cmpd 27, N-((4-fluoro-1H-benzo[d]imidazol-2-yl)methyl)-3-(1-isopropyl-1H-pyrazol-4-yl)-6-morpholinoimidazo[1,2-b]pyridazin-8-amine] | 52 | 10000 | 1600 | 1080 | 50 |
| CN1CCN(c2cc(NCc3nc4cc(Cl)c(Cl)cc4[nH]3)c3ncc(-c4ccsc4)n3n2)CC1 [Cmpd 63, N-((5,6-dichloro-1H-benzo[d]imidazol-2-yl)methyl)-6-(4-methylpiperazin-1-yl)-3-(thiophen-3-yl) imidazo[1,2-b]pyridazin-8-amine] | – | 78 | 180 | 2010 | 100 |
| CN1CCC(Nc2cc(NCc3nc4cc(Cl)c(Cl)cc4[nH]3)c3ncc(-c4cnn(C(F)F)c4)n3n2)CC1 [Cmpd 46, N8-((5,6-dichloro-1H-benzo[d]imidazol-2-yl)methyl)-3-(1-(difluoromethyl)-1H-pyrazol-4-yl)-N6-(1-methylpiperidin-4-yl) imidazo[1,2-b]pyridazine-6,8-diamine] | – | 25 | 180 | 68 | 100 |
| Clc1cc2nc(CNc3cc(N4CCOCC4)nn4c(-c5cn[nH]c5)cnc34)[nH]c2cc1Cl [Cmpd 61, N-((5,6-dichloro-1H-benzo[d]imidazol-2-yl)methyl)-6-morpholino-3-(1H-pyrazol-4-yl) imidazo[1,2-b]pyridazin-8-amine] | – | 235 | 590 | 1320 | 100 |
| NC1CCN(c2cc(NCc3nc4cccc(Cl)c4[nH]3)c3ncc(-c4ccsc4)n3n2)CC1 [Cmpd 70, 6-(4-aminopiperidin-1-yl)-N-((7-chloro-1H-benzo[d]imidazol-2-yl)methyl)-3-(thiophen-3-yl) imidazo[1,2-b]pyridazin-8-amine] | – | 73 | 160 | 78 | 95 |
| Cc1ccnc2[nH]c(CNc3cc(N4CCOCC4)nn4c(-c5cnn(C(F)F)c5)cnc34)nc12 [Cmpd 58, 3-(1-(difluoromethyl)-1H-pyrazol-4-yl)-N-((7-methyl-3H-imidazo[4,5-b]pyridin-2-yl)methyl)-6-morpholinoimidazo[1,2-b]pyridazin-8-amine] | – | 406 | 260 | 65 | 100 |
| Clc1cccc2nc(CNc3cc(N4CCNCC4)nn4c(-c5ccsc5)cnc34)[nH]c12 [Cmpd 68, N-((7-chloro-1H-benzo[d]imidazol-2-yl)methyl)-6-(piperazin-1-yl)-3-(thiophen-3-yl) imidazo[1,2-b]pyridazin-8-amine] | – | 33 | 10 | 65 | 90 |
| Clc1cc2nc(CNc3cc(N4CCOCC4)nn4c(-c5ccsc5)cnc34)[nH]c2cc1Cl [Cmpd 64, N-((5,6-dichloro-1H-benzo[d]imidazol-2-yl)methyl)-6-morpholino-3-(thiophen-3-yl) imidazo[1,2-b]pyridazin-8-amine] | – | 168 | 340 | 4250 | 100 |
| Cc1cc(-c2cnc3c(NCc4nc5cccc(Cl)c5[nH]4)cc(N4CCN(C)CC4)nn23)cs1 [Cmpd 84, N-((7-chloro-1H-benzo[d]imidazol-2-yl)methyl)-6-(4-methylpipcrazin-1-yl)-3-(5-methylthiophen-3-yl) imidazo[1,2-b]pyridazin-8-amine] | 61 | 2210 | 1500 | – | 80 |
